Where “and” joins values, the source holds several entries; their conditions need not be identical. Identical values can stand only once.
Key:
Assay type in all cases: in vivo
CD-1 mice [1] = assay: Nociceptive behavior model elicited by intraplantar injection of formalin; settings: 200 mg/kg oral
Experimental: Mice (n=6 per group) were habituated under inverted Plexiglas observation chamber for 30 minutes to allow them to acclimatize to their surroundings. […] Mice were immediately transferred to their individual observational chamber. […] Mirrors positioned behind the chambers enabled observation of the right hind paw when it was obscured from direct view. […] These behavioral reactions observed for the first five minutes are due to direct action of the irritant on sensory nerve endings where is believed to be as a result of inflammation in the later phase. […] Mice were treated with curcumin (50, 100, 150 or 200 mg/kg) or ibuprofen (200 mg/kg) orally half an hour before intraplantar formalin injection.

CD-1 mice [2] = assay: Visceral pain perception model (Writhing's test, acetic acid)
Experimental: Mice (n=6 per group) were habituated under an inverted Plexiglas observation chamber for 30 minutes to allow them to acclimatize to their surroundings. Animals were orally administered treatment articles at different doses, […], or vehicle control (propylene glycol) 30 minutes before intraperitoneal administration of freshly made acetic acid solution (0.7% in 0.9% NaCl) at 10 ml/kg using a 26 gauge needle. The experiment was carried out at room temperature. After the challenge, each animal was placed back into its own individual section of the observation chamber and the number of constrictions of the abdominal muscle together with stretching was counted cumulatively over a period of 30 minutes (Collier et al., Br. J. Pharmacol. Chemother. 32:295, 1968).

Wistar rats = assay: Adjuvant-induced arthritis (AIA) rat model (paw edema, allodynia, ankle width); design: Paw edema, Mean ± SD: unit not given beside the values; Allodynia, Mean ± SD / Ankle Width, Mean ± SD: unit not given here; settings: for reduction in ankle diameter vs. vehicle control / reduction in pain sensitivity (allodynia) / reduction in paw edema vs. vehicle control / Allodynia, Mean ± SD / Paw edema, Mean ± SD: 100 mg/kg oral daily; for Ankle Width, Mean ± SD: AIA rats, oral 100 mg/kg; for Allodynia, Mean ± SD / Paw edema, Mean ± SD: AIA model, Wistar rats
Experimental: This adjuvant-induced rat arthritis model was used to evaluate the anti-pain and anti-inflammatory activity of a Curcuma:Morus (C:M) composition. Purpose bred female Wistar rats weighing 150-175 g (Charles River Laboratories, Inc., Wilmington, Mass.) were acclimated upon arrival for a week before being assigned randomly to their respective group. The rats were provided with fresh water and rodent chow diet ad libitum while being housed in a temperature controlled room (22.2° C.) on a 12 hour light-dark cycle. Treatment was started a day before antigen inoculation, wherein animals (n=9) were orally gavaged with a positive control ibuprofen, a 1C:1M test article, or a vehicle only control (propylene glycol). On the next day, arthritis was induced by sensitizing rats with an injection of complete Freund's adjuvant containing 5 mg/ml (w/v) suspension of heat killed Mycobacterium tuberculosis in liquid paraffin into the subplantar region of right hind paw of sedated rats (Currey, Ann. Rheum. Dis. 29:314, 1970; Whitehouse et al., Can. Med. Assoc. J. 129:249, 1983) an hour after a second treatment dose.
(§1) Treatment with the controls or test articles was started a day before intraplantar injection of complete adjuvant into the right hind paw. The anti-inflammatory effect of a C:M composition was reflected in the measured change in paw edema. Rats (n=9) were treated orally with 1C:1M composition (200 mg/kg, 100 mg/kg or 50 mg/kg), ibuprofen (100 mg/kg) or vehicle for 14 days. Data are expressed as mean±SD and p-values were calculated against vehicle. Paw edema was measured with the use of a plethysmometer (IITC, Woodland Hills, Calif.; Model 520) on day 1 (before antigen), day 3, 5, 7, 9 and 13 after antigen injection.
Treatment with the controls or test articles was started a day before intraplantar injection of complete adjuvant into the right hind paw. The anti-pain effect of a C:M composition was reflected by allodynia (induced pain). Rats (n=9) were treated orally with 1C:1M composition (200 mg/kg, 100 mg/kg or 50 mg/kg), ibuprofen (100 mg/kg) or vehicle for 14 days. Data are expressed as mean±SD and p-values were calculated against vehicle. Allodynia was evaluated by responsiveness to pressure applied perpendicular to the central plantar surface of the right hind paw using the Randall—Selitto test (Randall and Selitto, Arch. Intl Pharmacodyn Therap. 133:233, 1957). A positive response to the applied mechanical pressure, noted by sharp withdrawal of the paw, was recorded automatically by an electronic Von Frey Anesthesiometer (2390 series Electrovonfrey, IITC, Woodland Hills, Calif.) (Vivancos et al., 2004).
as §1, with “ankle diameter.” for “paw edema.”, “vehicle Ankle diameter” for “vehicle. Paw edema”, “using” for “with the use of”, “Pocket Thickness Gage (7309, Mitutoyo corp. Japan)” for “plethysmometer (IITC, Woodland Hills, Calif.; Model 520)”

[3] = 200 mg/kg oral, vs vehicle, CD-1 mice

`CC(C)Cc1ccc(C(C)C(=O)O)cc1` (centres unmarked) [Ibuprofen] was tested, and the “Pain Sensitivity 20-40 Minutes after Formalin Injection % ↓ vs. Vehicle” value (CD-1 mice [1]) was 63.5%, the “Max % inhibition of visceral pain sensitivity” value (CD-1 mice [2]; 100 mg/kg oral) was 67.6% and the “Visceral Pain Sensitivity % ↓ vs. Vehicle” value (CD-1 mice [2]; 100 mg/kg oral) was 56.1%. For the same molecule, the “% reduction of pain behavior” value (CD-1 mice [2]; 200 mg/kg oral) was 67.4% and 46.0%, the “number of abdominal constrictions / behavioral responses in 30 minutes, Mean ± SD” value (CD-1 mice [2]; 200 mg/kg oral) was 25.3±14.3 and 41.8±12.6 and the “Visceral pain sensitivity, behavioral responses, Mean ± SD” value (CD-1 mice [2]; 200 mg/kg oral 30 min before acetic acid i.p., observed 30 minutes, CD-1 mice) was 34.5 ± 12.7 and 25.3 ± 14.3 and 41.8 ± 12.6. The “Visceral pain sensitivity, % Inhibition” value (CD-1 mice [2]; [3]) was 67.4% and 46.0%, the “Visceral pain sensitivity, % inhibition vs vehicle” value (CD-1 mice [2]; [3]) was 64.1% and the “reduction in ankle diameter vs. vehicle control” value (Wistar rats; day 3) was 37.2%. The “reduction in pain sensitivity (allodynia)” value (“reduction … (allodynia)” for short) (Wistar rats; day 3) was 31.3%, the “reduction in paw edema vs. vehicle control” value (Wistar rats; day 3) was 28.8% and the “reduction in ankle diameter vs. vehicle control” value (Wistar rats; day 5) was 34.8%. The “reduction … (allodynia)” value (Wistar rats; day 5) was 39.5%, the “reduction in paw edema vs. vehicle control” value (Wistar rats; day 5) was 21.1% and the “reduction in ankle diameter vs. vehicle control” value (Wistar rats; day 7) was 36.8%. For the same molecule, the “reduction … (allodynia)” value (Wistar rats; day 7) was 48.8%, the “reduction in paw edema vs. vehicle control” value (Wistar rats; day 7) was 19.4% and the “reduction in ankle diameter vs. vehicle control” value (Wistar rats; day 9) was 33.5%. For the same molecule, the “reduction … (allodynia)” value (Wistar rats; day 9) was 52.5%, the “reduction in paw edema vs. vehicle control” value (Wistar rats; day 9) was 24.3% and the “reduction in ankle diameter vs. vehicle control” value (Wistar rats; day 13) was 44.2%. The “reduction … (allodynia)” value (Wistar rats; day 13) was 52.5%, the “reduction in paw edema vs. vehicle control” value (Wistar rats; day 13) was 32.7% and the “Ankle Width, Mean ± SD” value (Wistar rats; Day 3) was 1.1 ± 0.1. For the same molecule, the “Ankle Width, Mean ± SD” value (Wistar rats; Day 5) was 1.0 ± 0.1, the “Ankle Width, Mean ± SD” value (Wistar rats; Day 7) was 1.2 ± 0.1 and the “Ankle Width, Mean ± SD” value (Wistar rats; Day 9) was 1.0 ± 0.2. The “Ankle Width, Mean ± SD” value (Wistar rats; Day 13) was 0.8 ± 0.1, the “Allodynia, Mean ± SD” value (Wistar rats; Day 3) was 67.4 ± 5.6 and the “Paw edema, Mean ± SD” value (Wistar rats; Day 3) was 3.5 ± 0.7. For the same molecule, the “Allodynia, Mean ± SD” value (Wistar rats; Day 5) was 54.8 ± 2.6, the “Paw edema, Mean ± SD” value (Wistar rats; Day 5) was 3.1 ± 0.8 and the “Allodynia, Mean ± SD” value (Wistar rats; Day 7) was 43.0 ± 4.6. The “Paw edema, Mean ± SD” value (Wistar rats; Day 7) was 3.1 ± 0.7, the “Allodynia, Mean ± SD” value (Wistar rats; Day 9) was 38.8 ± 2.3 and the “Paw edema, Mean ± SD” value (Wistar rats; Day 9) was 2.7 ± 0.6. The “Allodynia, Mean ± SD” value (Wistar rats; Day 13) was 32.9 ± 2.6 and the “Paw edema, Mean ± SD” value (Wistar rats; Day 13) was 2.1 ± 0.58.

Reference: patent US20230190852A1, “COMPOSITIONS AND METHODS FOR JOINT HEALTH” (Unigen, Inc., priority 2013, published 2023)
